What follows are compounds tested against PCP receptor (assay: [3H]TCP radioreceptor assay (binding to PCP recognition sites)). Conditions: [3H]TCP approx. 1 nM, rat brain membranes; mean of at least two determinations.
Set-up: species or system rat (male Sprague-Dawley, whole brain)
Description: [^3 H]TCP Radioreceptor Assay
[^3 H]TCP binding to PCP recognition sites was performed as described by Vignon et al. Brain Research 1983, 280, 194-197. Male Sprague-Dawley rats were sacrificed by decapitation, and whole brains were homogenized in 10 volumes (wt/vol) of cold Tris-HCl buffer (50 mM, pH 7.7) using a Brinkmann Polytron (setting 6, 30 sec). The homogenate was centrifuged at 40,000×g for 10 min at 4° C. The supernatant was decanted, and the homogenization and centrifugation steps were repeated twice as described above. Following this, the pellet was resuspended in Tris-HCl (5 mM, pH 7.7) at a tissue concentration of 0.5-0.75 g/mL, and one mL aliquots were frozen at -70° C. until use. The binding characteristics for PCP recognition sites were not altered by the freezing of membrane suspensions.
On the day of the assay, membrane aliquots were thawed, resuspended in fresh 5 mM Tris-HCl buffer at a tissue concentration of 1 mg/mL, and stored on ice until use. Each assay tube contained 100 μl of [^3 H]TCP at a final concentration of approximately 1 nM, 100 μL of various concentrations of the compounds of interest, 500 μL of the tissue suspension and 300 μL of buffer to a final assay volume of 1 mL and a final protein concentration of 0.5 mg/tube. Non-specific binding was defined by addition of a final concentration of 100 μM PCP to blank tubes. All tubes were incubated at room temperature for 25 min before termination of the reaction by rapid filtration over Whatman GF/B glass fiber filters that had been presoaked in a solution of 0.5% polyethylenimine for at least 1 hr prior to use. Filters were washed with three 4 mL volumes of cold Tris buffer. Following addition of scintillation cocktail, the amount of bound radioactivity was determined by liquid scintillation spectrometry using a Beckman LS 5000TA liquid scintillation counter with an efficiency for tritium of approximately 55%. Inhibition constants (Ki values) were calculated using the EBDA/LIGAND program (McPherson, J. Pharmacol. Meth. 1985, 14, 213-228), purchased from ElsevierBiosoft, Inc. Results are reported as the Ki values (in nM) which are expressed as the mean of at least two separate determinations; or as a percent (%) inhibition of binding at 10 μM.

In order of falling Ki:
1. COc1ccc(C2(c3ccc(OC)cc3)CC3c4ccccc4C2c2cccc[n+]23)cc1 (stereo not drawn) [44(b), 6,11-ethano-12,12-di(p-methoxyphenyl)-6,11-dihydrobenzo[b]quinolizinium hexafluorophosphate]  28100 nM
2. c1cncc(C2(c3cccnc3)CC3c4ccccc4C2c2cccc[n+]23)c1 (stereo not drawn) [42(E), 6,11-ethano-12,12-di(3-pyridyl)-6,11-dihydrobenzo[b]quinolizinium chloride]  2270 nM
3. Fc1ccc(C2(c3ccc(F)cc3)CC3c4ccccc4C2c2cccc[n+]23)cc1 (stereo not drawn) [31(c), 6,11-ethano-12,12-di(p-fluorophenyl)-6,11-dihydrobenzo[b]-quinolizinium chloride]  2210 nM
4. Fc1cc(F)c2c(c1)C1CC(c3ccccc3)(c3ccccc3)C2c2cccc[n+]21 (stereo not drawn) [33(c), 6,11-ethanol-12,12-diphenyl-8,10-difluoro-6,11-dihydrobenzo[b]quinolizinium chloride 1/4 hydrate]  1140 nM
5. FC(F)(F)c1ccc2c(c1)C1c3cccc[n+]3C2CC1(c1ccccc1)c1ccccc1 (stereo not drawn) [45(E), 6,11-ethano-12,12-diphenyl-9-trifluoromethyl-6,11-dihydrobenzo[b]quinolizinium chloride 1/4 hydrate]  491 nM
6. CC(C)Oc1cccc2c1C1c3cccc[n+]3C2CC1(c1ccccc1)c1ccccc1 (stereo not drawn) [32(F), 6,11-ethano-12.12-diphenyl-10-isopropoxy-6,11-dihydrobenzo[b]quinoliziniumchloride]  468 nM
7. Brc1cccc(C2(c3cccc(Br)c3)CC3c4ccccc4C2c2cccc[n+]23)c1 (stereo not drawn) [36(c), 6,11-ethano-12,12-di(m-bromophenyl)-6,11-dihydrobenzo[b]quinolizinium chloride]  185 nM
8. COc1cccc(C2(c3cccc(OC)c3)CC3c4ccccc4C2c2cccc[n+]23)c1 (stereo not drawn) [35(c), 6,11-ethano-12,12-di(m-methoxyphenyl)-6,11-dihydrobenzo[b]quinolizinium chloride]  41 nM
9. COc1cccc2c1C1c3cccc[n+]3C2(C)CC1(c1ccccc1)c1ccccc1 (stereo not drawn) [37(E), 6,11-ethano-12,12-diphenyl-10-methoxy-6-methyl-6,11-dihydrobenzo[b]quinolizinium chloride]  36.7 nM
10. Oc1ccc2c(c1)C1c3cccc[n+]3C2CC1(c1ccccc1)c1ccccc1 (stereo not drawn) [34(b), 6,11-ethano-12,12-diphenyl-9-hydroxy-6,11-dihydrobenzo[b]quinolizinium chloride]  21.9 nM
11. CC12CC(c3ccccc3)(c3ccccc3)C(c3c(O)cccc31)c1cccc[n+]12 (stereo not drawn) [38(c), 6,11-ethano-12,12-diphenyl-10-hydroxy-6-methyl-6,11-dihydrobenzo[b]quinolizinium chloride]  16.6 nM
12. Oc1cccc2c1C1c3cccc[n+]3C2CC1(c1ccccc1)c1ccccc1 (stereo not drawn) [28(c), 6,11-ethano-12,12-diphenyl-10-hydroxy-6,11-dihydrobenzo[b]quinolizinium chloride]  11.7 nM

Same assay, conditions: inhibition of [3H]TCP binding at 10 μM

In order of rising “[3H]TCP percent inhibition @ 10 μm” value:
1. Cc1ccc(C2(c3ccc(C)cc3)CC3c4ccccc4C2c2cccc[n+]23)cc1.[Cl-] (stereo not drawn) [30(c), 6,11-ethano-12,12-di-(p-methylphenyl)-6,11-dihydrobenzo[b]quinolizinium chloride]  22%
2. COc1ccc(CN(c2ccc(C3(c4ccc(N(Cc5ccc(OC)cc5)S(C)(=O)=O)cc4)CC4c5ccccc5C3c3cccc[n+]34)cc2)S(C)(=O)=O)cc1 (stereo not drawn) [29(c), 6,11-ethano-12,12-di[4-(N-p-methoxybenzyl-N-methylsulfonylamino)phenyl]-6,11-dihydrobenzo[b]quinolizinium perchlorate 1/2 ethyl acetate]  31%
3. Clc1ccc(C2(c3ccc(Cl)cc3)CC3c4ccccc4C2c2cccc[n+]23)cc1.F[P-](F)(F)(F)(F)F (stereo not drawn) [43(b), 6,11-ethano-12,12-di(p-chlorophenyl)-6,11-dihydrobenzo[b]quinolizinium hexafluorophosphate]  45%
